# Measurements: patent US7183267B2, “β-lactamase inhibitors and methods of use thereof” (priority 2003, dated 2007)
# Tests used:
# [1] = tested on: methicillin resistant S. aureus from Stanford University Hospital (MRSA-SU); test: MIC assay, broth microdilution, MRSA-SU; type: cell-based; settings: Staphylococcus aureus, MRSA, 24 h
# Text: (2) methicillin resistant S. aureus from Stanford University Hospital Clinical Microbiology/Virology Laboratory (MRSA-SU). […] Such Staphylococci are also resistant to all penicillins, and all cephalosporins, in addition to all β-lactamase inhibitor combinations (including ampicillin/sulbactarn, amoxicillin/clavulanic acid, piperacillin/tazobactam), imipenem, and meropenem; and
# The strains were processed according to procedures recommended by ATCC, or procedures that are routinely used. Single colonies of each organism were picked for purification to generate pure working cultures. Prior to each experiment each strain was subcultured on a fresh Mueller-Hinton agar plate (MHA).
# Inocula for the MIC assays were prepared by transferring a tiny portion of one colony from a MHA plate to 2 ml of Mueller-Hinton broth (MHB) such that the estimated cell density was about 10^7 colony forming unit (CFU)/ml. This cell suspension was then further diluted 10-fold (to 10^6 CFU/ml) by transferring the 2 ml cell suspension to 18 ml of MHB. Addition of 50 μl of this dilute cell suspension to 50 μl of growth medium yielded the desired cell density, namely about 5×10^4 CFU/well, or 5×10^5 CFU/ml.
# The MIC value of oxacillin was determined using the broth microdilution procedure recommended by the National Committee of Clinical Laboratory Standards (NCCLS, 2000).
# The MIC experiments were performed in duplicate in 96-well microtiter plates using MHB. A stock solution of 2.6 mg/0.5 ml was prepared in dimethylsulfoxide (DMSO). A total of 8 two-fold serial dilutions were made with DMSO. Initial oxacillin doses used were (μg/ml): 64, 32, 16, 8, 4, 2, 1, and 0.5. Doses were adjusted in the confirmatory experiment, if needed, in order to establish an actual MIC value.
# (§1) To each well of a 96 well microtiter plate was added 47.5 μl of MHB. A volume of 2.5 μl of each dilution of oxacillin was then transferred to appropriate wells containing the medium. All wells, except the sterility control wells, were then inoculated with 50 μl of a diluted cell suspension to give a final volume of 100 μl and a final cell density of 5×10^4 CFU/well. The volume in the sterility control wells was adjusted to 100 μl with MHB. A sterile pipette tip was used to mix the contents of each well (one tip was used going from the low to the high concentration in the same column). The microtiter plates were covered with the lids and were placed in large Stratagene Big Blue plates (Cat. # 400041). Four large kimwipes moistened with tap water were placed near the edges of the Stratagene plates to prevent evaporation of the medium. The microtiter plates were incubated for at least 24 hours at 35° C. The plates were then evaluated for growth in each well. Controls included: medium sterility and negative control (medium and bacteria only).
# The procedure used to determine the antimicrobial activity of the compounds of the present invention was identical to the broth microdilution procedure described above with the exception of the preparation of the stock solutions. Stock solution at concentration of 40.96 mg/0.5 ml was prepared in DMSO for each of the compounds. A total of 8 two-fold dilutions were then made in DMSO. A volume of 2.5 μl of each dilution was delivered to appropriate wells. The initial doses used were (μg/ml): 512, 256, 128, 64, 32, 16, 8, and 4.
# (§2) A numerical code was used to evaluate the extent of growth as indicated below. • 0: absence of growth • 1: barely visible (faint) growth • 2: fair growth but less than the negative solvent control • 3: growth is equivalent to the negative solvent control.
# (§3) The lowest dose at which no visible growth is observed was determined to be the MIC value.
# MIC assays were performed with oxacillin and the four compounds. Each of the compounds was tested at the following 8 doses (μg/ml): 512, 256, 128, 64, 32, 16, 8, and 4. Oxacillin was tested at the following 8 doses (μg/ml): 64, 32, 16, 8, 4, 2, 1, and 0.5.
# [2] = tested on: methicillin resistant S. aureus from Stanford University Hospital (MRSA-SU); test: Matrix system: oxacillin plus β-lactamase inhibitor, MRSA-SU; type: cell-based
# Protocol: as §1, §2, §3
# The effect of the four compounds of the present invention on oxacillin resistance of the MRSA strains was determined using a matrix system. The β-lactamase inhibitors were tested at 5 doses against up to eleven concentrations of oxacillin. […] A 96-well microtiter plate was used for the matrix system. The procedure was identical to that described above for the MIC determination, with the exception that both oxacillin and one each of the β-lactamase inhibitors was added, 2.5 μl each, to the wells prior to addition of the test organisms.
# Matrix Study:Oxacillin and Compound FL201 with MRSA-SU
# Matrix Study: Oxacillin and Compound FL202 with MRSA-SU
compound,measurement,setting,value
O=C(OCc1ccccc1)c1cc(B(O)O)cc([N+](=O)[O-])c1 [Compound F1201],MIC,[1],32 mg/L
same,MIC (oxacillin),"[2]; Table 17, in presence of F1201 2 μg/ml",64 mg/L
same,MIC (oxacillin),"[2]; Table 17, in presence of F1201 4 μg/ml",16 mg/L
same,MIC (oxacillin),"[2]; Table 17, in presence of F1201 8 μg/ml",0.5 mg/L
same,MIC (oxacillin),"[2]; Table 17, in presence of F1201 16 μg/ml",<0.064 mg/L
same,growth score,"[2]; Table 17, oxacillin 0, F1201 2 μg/ml",3
same,growth score,"[2]; Table 17, oxacillin 0, F1201 4 μg/ml",2
same,growth score,"[2]; Table 17, oxacillin 0, F1201 8 μg/ml",2
same,growth score,"[2]; Table 17, oxacillin 0, F1201 16 μg/ml",1
same,growth score,"[2]; Table 17, oxacillin 0, F1201 32 μg/ml",0
same,growth score,"[2]; Table 17, oxacillin 0.064 μg/ml + F1201 2 μg/ml",2
same,growth score,"[2]; Table 17, oxacillin 0.064 μg/ml + F1201 4 μg/ml",2
same,growth score,"[2]; Table 17, oxacillin 0.064 μg/ml + F1201 8 μg/ml",1
same,growth score,"[2]; Table 17, oxacillin 0.064 μg/ml + F1201 16 μg/ml",0
same,growth score,"[2]; Table 17, oxacillin 0.064 μg/ml + F1201 32 μg/ml",0
same,growth score,"[2]; Table 17, oxacillin 0.125 μg/ml + F1201 2 μg/ml",2
same,growth score,"[2]; Table 17, oxacillin 0.125 μg/ml + F1201 4 μg/ml",2
same,growth score,"[2]; Table 17, oxacillin 0.125 μg/ml + F1201 8 μg/ml",1
same,growth score,"[2]; Table 17, oxacillin 0.125 μg/ml + F1201 16 μg/ml",0
same,growth score,"[2]; Table 17, oxacillin 0.125 μg/ml + F1201 32 μg/ml",0
same,growth score,"[2]; Table 17, oxacillin 0.25 μg/ml + F1201 2 μg/ml",2
same,growth score,"[2]; Table 17, oxacillin 0.25 μg/ml + F1201 4 μg/ml",1
same,growth score,"[2]; Table 17, oxacillin 0.25 μg/ml + F1201 8 μg/ml",1
same,growth score,"[2]; Table 17, oxacillin 0.25 μg/ml + F1201 16 μg/ml",0
same,growth score,"[2]; Table 17, oxacillin 0.25 μg/ml + F1201 32 μg/ml",0
same,growth score,"[2]; Table 17, oxacillin 0.5 μg/ml + F1201 2 μg/ml",2
same,growth score,"[2]; Table 17, oxacillin 0.5 μg/ml + F1201 4 μg/ml",1
same,growth score,"[2]; Table 17, oxacillin 0.5 μg/ml + F1201 8 μg/ml",0
same,growth score,"[2]; Table 17, oxacillin 0.5 μg/ml + F1201 16 μg/ml",0
same,growth score,"[2]; Table 17, oxacillin 0.5 μg/ml + F1201 32 μg/ml",0
same,growth score,"[2]; Table 17, oxacillin 1 μg/ml + F1201 2 μg/ml",1
same,growth score,"[2]; Table 17, oxacillin 1 μg/ml + F1201 4 μg/ml",1
same,growth score,"[2]; Table 17, oxacillin 1 μg/ml + F1201 8 μg/ml",0
same,growth score,"[2]; Table 17, oxacillin 1 μg/ml + F1201 16 μg/ml",0
same,growth score,"[2]; Table 17, oxacillin 1 μg/ml + F1201 32 μg/ml",0
same,growth score,"[2]; Table 17, oxacillin 2 μg/ml + F1201 2 μg/ml",1
same,growth score,"[2]; Table 17, oxacillin 2 μg/ml + F1201 4 μg/ml",1
same,growth score,"[2]; Table 17, oxacillin 2 μg/ml + F1201 8 μg/ml",0
same,growth score,"[2]; Table 17, oxacillin 2 μg/ml + F1201 16 μg/ml",0
same,growth score,"[2]; Table 17, oxacillin 2 μg/ml + F1201 32 μg/ml",0
same,growth score,"[2]; Table 17, oxacillin 4 μg/ml + F1201 2 μg/ml",1
same,growth score,"[2]; Table 17, oxacillin 4 μg/ml + F1201 4 μg/ml",1
same,growth score,"[2]; Table 17, oxacillin 4 μg/ml + F1201 8 μg/ml",0
same,growth score,"[2]; Table 17, oxacillin 4 μg/ml + F1201 16 μg/ml",0
same,growth score,"[2]; Table 17, oxacillin 4 μg/ml + F1201 32 μg/ml",0
same,growth score,"[2]; Table 17, oxacillin 16 μg/ml + F1201 2 μg/ml",1
same,growth score,"[2]; Table 17, oxacillin 16 μg/ml + F1201 4 μg/ml",0
same,growth score,"[2]; Table 17, oxacillin 16 μg/ml + F1201 8 μg/ml",0
same,growth score,"[2]; Table 17, oxacillin 16 μg/ml + F1201 16 μg/ml",0
same,growth score,"[2]; Table 17, oxacillin 16 μg/ml + F1201 32 μg/ml",0
same,growth score,"[2]; Table 17, oxacillin 64 μg/ml + F1201 2 μg/ml",0
same,growth score,"[2]; Table 17, oxacillin 64 μg/ml + F1201 4 μg/ml",0
same,growth score,"[2]; Table 17, oxacillin 64 μg/ml + F1201 8 μg/ml",0
same,growth score,"[2]; Table 17, oxacillin 64 μg/ml + F1201 16 μg/ml",0
same,growth score,"[2]; Table 17, oxacillin 64 μg/ml + F1201 32 μg/ml",0
same,growth score,"[2]; Table 17, oxacillin 128 μg/ml + F1201 2 μg/ml",0
same,growth score,"[2]; Table 17, oxacillin 128 μg/ml + F1201 4 μg/ml",0
same,growth score,"[2]; Table 17, oxacillin 128 μg/ml + F1201 8 μg/ml",0
same,growth score,"[2]; Table 17, oxacillin 128 μg/ml + F1201 16 μg/ml",0
same,growth score,"[2]; Table 17, oxacillin 128 μg/ml + F1201 32 μg/ml",0
same,growth score,"[2]; Table 17, oxacillin 256 μg/ml + F1201 2 μg/ml",0
same,growth score,"[2]; Table 17, oxacillin 256 μg/ml + F1201 4 μg/ml",0
same,growth score,"[2]; Table 17, oxacillin 256 μg/ml + F1201 8 μg/ml",0
same,growth score,"[2]; Table 17, oxacillin 256 μg/ml + F1201 16 μg/ml",0
same,growth score,"[2]; Table 17, oxacillin 256 μg/ml + F1201 32 μg/ml",0
